These results are taken from ChEMBL document CHEMBL4419178, “Yap1 inhibitors that target the interaction of yap1 with oct4” (2018).

Activity calls are given as the source filed them. The calls are words filed in the database; no cut-off is given here.

Data set [1] deals with Transcriptional coactivator YAP1 (Homo sapiens) (UniProt P46937). Kind of data set: Inhibition of YAP1 in human NCI-H1650 cells assessed as reduction in Sox2 protein expression at 10 uM incubated for 72 hrs by Western blot analysis. Type of data set: cell-based.
For data set [2] the target is unchanged. In words: Inhibition of YAP1 in human NCI-H1650 cells assessed as reduction in c-Myc protein expression at 10 uM incubated for 72 hrs by Western blot analysis. The class given is cell-based. (In general: A western blot detects proteins with antibodies after separation by electrophoresis.)
For data set [3] the target is unchanged. Kind of data set: Inhibition of YAP1 in human NCI-H1650 cells assessed as reduction in PDK2 protein expression at 10 uM incubated for 72 hrs by Western blot analysis. Type of data set: cell-based.
For data set [4] the target is unchanged. Kind of data set: Inhibition of YAP1 in human A549 cells assessed as reduction in Sox2 protein expression at 10 uM incubated for 72 hrs by Western blot analysis. The class given is cell-based.
The target is the same in data set [5]. In words: Inhibition of YAP1 in human A549 cells assessed as reduction in c-Myc protein expression at 10 uM incubated for 72 hrs by Western blot analysis. Type of data set: cell-based.
Data set [6] shares this target. Kind of data set: Inhibition of YAP1 in human A549 cells assessed as reduction in PDK2 protein expression at 10 uM incubated for 72 hrs by Western blot analysis. Type of data set: cell-based.
Data set [7] concerns NCI-H1650. In words: Inhibition of adherence-independent cell growth in human NCI-H1650 cells at 5 uM incubated for 33 days. Type of data set: functional, cell-based.
Data set [8] concerns NCI-H1650. Kind of data set: Inhibition of adherence-independent cell growth in human NCI-H1650 cells at 10 uM incubated for 33 days. Type of data set: functional, cell-based.
The subject of data set [9] is NCI-H146. Kind of data set: Inhibition of self-renewal capacity in methotrexate insensitive stem-like side-population cells of human NCI-H146 cells assessed as reduction in number of spheres at 2 uM incubated for 3 days after 7 days methotrexate exposure by sphere formation assay. The class given is functional.
A further data set relates to NCI-H1975. Kind of data set: Cytotoxicity in gefitinib and erlotinib resistant human NCI-H1975 cells assessed as reduction in cell viability at 1 to 10 uM incubated for 72 hrs by MTT assay. Type of data set: functional, cell-based. Background: Tetrazolium dyes change colour on reduction, which living cells bring about.
The target of data set [10] is Transcriptional coactivator YAP1 (Homo sapiens) (UniProt P46937). Kind of data set: Inhibition of YAP1 in human NCI-H1650 cells assessed as suppression of Sox2 mRNA expression at 5 to 10 uM incubated for 72 hrs by RT-PCR method. The class given is cell-based.
Data set [11] has the same target. Kind of data set: Inhibition of YAP1 in human NCI-H1703 cells assessed as suppression of Sox2 mRNA expression at 5 to 10 uM incubated for 72 hrs by RT-PCR method. Type of data set: cell-based.
For data set [12] the target is unchanged. Kind of data set: Inhibition of YAP1 in human NCI-H146 cells assessed as suppression of Sox2 mRNA expression at 5 to 10 uM incubated for 72 hrs by RT-PCR method. The class given is cell-based.
Data set [13] concerns NCI-H1650. In words: Effect on expression of Oct4 mRNA expression in human NCI-H1650 cells at 5 to 10 uM incubated for 72 hrs by RT-PCR method. The conditions noted are these: nci-h1650, 72 h. Type of data set: cell-based.
Data set [14] has as its system NCI-H1650. Kind of data set: Effect on expression of Nanog mRNA expression in human NCI-H1650 cells at 5 to 10 uM incubated for 72 hrs by RT-PCR method. The class given is cell-based. The settings on record: nci-h1650, 72 h.
For data set [15], the system named is NCI-H1703. Kind of data set: Effect on expression of Oct4 mRNA expression in human NCI-H1703 cells at 5 to 10 uM incubated for 72 hrs by RT-PCR method. Type of data set: cell-based. The settings on record: nci-h1703, 72 h.
Data set [16] deals with NCI-H1703. In words: Effect on expression of Nanog mRNA expression in human NCI-H1703 cells at 5 to 10 uM incubated for 72 hrs by RT-PCR method. The conditions noted are these: nci-h1703, 72 h. The class given is cell-based.
The subject of data set [17] is NCI-H146. Kind of data set: Effect on expression of Oct4 mRNA expression in human NCI-H146 cells at 5 to 10 uM incubated for 72 hrs by RT-PCR method. The class given is cell-based. The conditions noted are these: nci-h146, 72 h.
Data set [18] has as its system NCI-H146. Kind of data set: Effect on expression of Nanog mRNA expression in human NCI-H146 cells at 5 to 10 uM incubated for 72 hrs by RT-PCR method. The class given is cell-based. The conditions noted are these: nci-h146, 72 h.
In data set [19] the target is Transcriptional coactivator YAP1 (Homo sapiens) (UniProt P46937). Kind of data set: Inhibition of YAP1 in human NCI-H1650 cells assessed as suppression of HK2 mRNA expression at 5 to 10 uM incubated for 72 hrs by RT-PCR method. The class given is cell-based.
Data set [20] has the same target. In words: Inhibition of YAP1 in human NCI-H1650 cells assessed as suppression of PDK2 mRNA expression at 5 to 10 uM incubated for 72 hrs by RT-PCR method. The class given is cell-based.
Data set [21] has the same target. In words: Inhibition of YAP1 in human NCI-H1703 cells assessed as suppression of HK2 mRNA expression at 5 to 10 uM incubated for 72 hrs by RT-PCR method. The class given is cell-based.
Data set [22] has the same target. In words: Inhibition of YAP1 in human NCI-H1703 cells assessed as suppression of PDK2 mRNA expression at 5 to 10 uM incubated for 72 hrs by RT-PCR method. The class given is cell-based.
For data set [23] the target is unchanged. Kind of data set: Inhibition of YAP1 in human NCI-H146 cells assessed as suppression of HK2 mRNA expression at 5 to 10 uM incubated for 72 hrs by RT-PCR method. Type of data set: cell-based.
The target is the same in data set [24]. Kind of data set: Inhibition of YAP1 in human NCI-H146 cells assessed as suppression of PDK2 mRNA expression at 5 to 10 uM incubated for 72 hrs by RT-PCR method. The class given is cell-based.
Data set [25] has the same target. In words: Inhibition of YAP1 in human NCI-H1650 cells assessed as suppression of PD-L1 mRNA expression at 5 to 10 uM incubated for 72 hrs by RT-PCR method. The class given is cell-based.
Data set [26] shares this target. Kind of data set: Inhibition of YAP1 in human NCI-H1703 cells assessed as suppression of PD-L1 mRNA expression at 5 to 10 uM incubated for 72 hrs by RT-PCR method. Type of data set: cell-based.
Data set [27] deals with NCI-H1650. Kind of data set: Inhibition of YAP1/TEAD2 interaction in human NCI-H1650 cells assessed as suppression of CTGF mRNA expression at 5 to 10 uM incubated for 72 hrs by RT-PCR method. The class given is cell-based.
For data set [28], the system named is NCI-H1703. Kind of data set: Inhibition of YAP1/TEAD2 interaction in human NCI-H1703 cells assessed as suppression of CTGF mRNA expression at 5 to 10 uM incubated for 72 hrs by RT-PCR method. The class given is cell-based.
Data set [29] concerns the target Transcriptional coactivator YAP1 (Homo sapiens) (UniProt P46937). In words: Inhibition of YAP1 in human NCI-H1650 cells assessed as suppression of fibronectin mRNA expression at 5 to 10 uM incubated for 72 hrs by RT-PCR method. The class given is cell-based.
The target is the same in data set [30]. Kind of data set: Inhibition of YAP1 in human NCI-H1650 cells assessed as suppression of vimentin mRNA expression at 5 to 10 uM incubated for 72 hrs by RT-PCR method. Type of data set: cell-based.
The target is the same in data set [31]. Kind of data set: Inhibition of YAP1 in human NCI-H1703 cells assessed as suppression of fibronectin mRNA expression at 5 to 10 uM incubated for 72 hrs by RT-PCR method. The class given is cell-based.
Data set [32] has the same target. Kind of data set: Inhibition of YAP1 in human NCI-H1703 cells assessed as suppression of vimentin mRNA expression at 5 to 10 uM incubated for 72 hrs by RT-PCR method. The class given is cell-based.
For data set [33], the system named is NCI-H1703. In words: Inhibition of adherence-independent cell growth in human NCI-H1703 cells at 10 uM incubated for 33 days. Type of data set: functional, cell-based.
The subject of data set [34] is NCI-H1703. Kind of data set: Inhibition of adherence-independent cell growth in human NCI-H1703 cells at 5 uM incubated for 33 days. Type of data set: functional, cell-based.
Data set [35] has as its system NCI-H1650. In words: Inhibition of self-renewal capacity in stem-like side-population cells of human NCI-H1650 cells assessed as reduction in number of spheres at 5 to 50 uM incubated for 10 days by sphere formation assay. The class given is functional, cell-based.
Data set [36] deals with NCI-H1650. In words: Cytotoxicity in human NCI-H1650 cells assessed as reduction in cell viability at 1 to 20 uM incubated for 72 hrs by MTT assay. Type of data set: functional, cell-based.
Another data set relates to A549. Kind of data set: Cytotoxicity in human A549 cells assessed as reduction in cell viability at 1 to 20 uM incubated for 72 hrs by MTT assay. Type of data set: functional, cell-based.
The next data set relates to NCI-H2286. In words: Cytotoxicity in human NCI-H2286 cells assessed as reduction in cell viability at 5 to 50 uM incubated for 96 hrs by MTT assay. Type of data set: functional, cell-based.
The next data set relates to NCI-H2170. Kind of data set: Cytotoxicity in human NCI-H2170 cells assessed as reduction in cell viability at 5 to 50 uM incubated for 96 hrs by MTT assay. The class given is functional, cell-based.

Sequence of Transcriptional coactivator YAP1 (Homo sapiens) (P46937 whole entry): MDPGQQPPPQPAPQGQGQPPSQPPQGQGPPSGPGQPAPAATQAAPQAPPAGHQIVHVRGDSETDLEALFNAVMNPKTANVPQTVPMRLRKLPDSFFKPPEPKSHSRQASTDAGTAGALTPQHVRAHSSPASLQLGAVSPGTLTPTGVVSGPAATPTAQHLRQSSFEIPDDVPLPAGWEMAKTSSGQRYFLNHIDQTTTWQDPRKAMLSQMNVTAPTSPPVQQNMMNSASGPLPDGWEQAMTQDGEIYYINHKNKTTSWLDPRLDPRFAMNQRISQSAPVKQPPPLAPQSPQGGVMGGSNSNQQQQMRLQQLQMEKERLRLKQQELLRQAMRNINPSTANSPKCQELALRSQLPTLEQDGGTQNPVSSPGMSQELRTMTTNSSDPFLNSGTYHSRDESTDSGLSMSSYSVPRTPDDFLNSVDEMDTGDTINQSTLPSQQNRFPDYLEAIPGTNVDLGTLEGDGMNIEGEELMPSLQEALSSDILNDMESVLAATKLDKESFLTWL

As for `COC(=O)[C@H](Cc1ccc(OCc2ccccc2)cc1)NC(=O)CC1CCN(C(=O)Cc2ccc(NC(=O)OC(C)(C)C)cc2)CC1`, the inhibition result in data set [1], in data set [2], in data set [3], in data set [4], in [5] and in [6] was “Active” throughout.
With `COC(=O)[C@H](Cc1ccc(OCc2ccccc2)cc1)NC(=O)CC1CCN(C(=O)CCCc2ccccc2)CC1`, the inhibition entry in data set [1], in [2], in data set [3], in data set [4], in [5] and in data set [6] was “Active” in each case. The inhibition result (with NCI-H1650 [7]; in the data set on NCI-H1650 [8]; with NCI-H146 [9]; in data set [10]; in data set [11]; in [12]) was “Active” in each case. Further, the inhibition entry in data set [19], in [20], in data set [21], in data set [22], in data set [23] and in [24] was “Active” throughout. The inhibition result in data set [25], in data set [26], in [29], in data set [30], in [31] and in data set [32] was “Active” in each case. Moreover, the inhibition result in the data set on NCI-H1703 [33] and in the data set on NCI-H1703 [34] was “Active” throughout. For the same compound, the result in the data set with NCI-H1975 was Active. Further, the Activity result in the data set on NCI-H1650 [13], in the data set on NCI-H1650 [14], in the data set with NCI-H1703 [15], in the data set with NCI-H1703 [16], in the data set with NCI-H146 [17] and in the data set with NCI-H146 [18] was “Non-Toxic” in each case. The inhibition entry with NCI-H1650 [27] and in the data set on NCI-H1703 [28] was “inactive” in each case.
Take `COC(=O)[C@H](Cc1ccc(OCc2ccccc2)cc1)NC(=O)CC1CCN(C(=O)CCc2cc(OC)c(OC)c(OC)c2)CC1`: in the data set on NCI-H1650 [35], the inhibition entry is “Active”. Also, the outcome in the data set with NCI-H1650 [36], with A549, with NCI-H2286 and in the data set on NCI-H2170 was Active.
